Reference: ChEMBL document CHEMBL3046520, “Synthesis of novel 2-phenyl-3-[2-(substituted amino) ethylamino] quinazolin-4(3H)-ones as a new class of H1-antihistaminic agents” (Med Chem Res, 2013)

Assays:
[1] = system: Mus musculus; test: Induction of sedation-hypnotic activity in Mus musculus Albino Swiss (mouse) assessed as reduction in locomotor activity at 5 mg/kg, po measured after 2 hr by actophotometer; assay type: organism-based; design: dose 5 mg/kg, route oral; scale not given: the % may be the effect or the level left; settings: in vivo
[2] = system: Mus musculus; test: Induction of sedation-hypnotic activity in Mus musculus Albino Swiss (mouse) assessed as reduction in locomotor activity at 5 mg/kg, po measured after 3 hr by actophotometer; assay type: organism-based; design: dose 5 mg/kg, route oral; scale not given: the % may be the effect or the level left; settings: in vivo
[3] = system: Cavia porcellus; test: In vivo H1-antihistaminic activity in Cavia porcellus Dunkin-Hartley (guinea pig) assessed as time of onset of convulsion at 10 mg/kg, po; assay type: functional
[4] = system: Mus musculus; test: Induction of sedation-hypnotic activity in Mus musculus Albino Swiss (mouse) assessed as reduction in locomotor activity at 5 mg/kg, po measured after 1 hr by actophotometer; assay type: organism-based; design: dose 5 mg/kg, route oral; scale not given: the % may be the effect or the level left; settings: in vivo
[5] = system: Cavia porcellus; test: In vivo H1-antihistaminic activity in conscious Cavia porcellus Dunkin-Hartley (guinea pig) assessed as protection against histamine-induced bronchospasm at 10 mg/kg, po; assay type: functional
[6] = system: Mus musculus; test: Induction of sedation-hypnotic activity in Mus musculus Albino Swiss (mouse) assessed as reduction in locomotor activity at 5 mg/kg, po measured after 0.5 hr by actophotometer; assay type: organism-based; design: dose 5 mg/kg, route oral; scale not given: the % may be the effect or the level left; settings: in vivo
[7] = system: Cavia porcellus; test: In vivo H1-antihistaminic activity in Cavia porcellus Dunkin-Hartley (guinea pig) assessed as time of onset of convulsion at 25 mg/kg, ip; assay type: functional; settings: route intraperitoneal
[8] = system: Cavia porcellus; test: In vivo H1-antihistaminic activity in conscious Cavia porcellus Dunkin-Hartley (guinea pig) assessed as protection against histamine-induced bronchospasm at 25 mg/kg, ip; assay type: functional; settings: route intraperitoneal

SMILES	Activity [1] [%]	Activity [2] [%]	Time [3] [s]	Activity [4] [%]	Activity [5] [%]	Activity [6] [%]	Time [7] [s]	Activity [8] [%]
O=c1c2ccccc2nc(-c2ccccc2)n1NCCNc1nccs1	9.85	7.43	409	9.52	72.12	8.21		
COc1ccc(NCCNn2c(-c3ccccc3)nc3ccccc3c2=O)cc1	10.94	8.53	398	10.43	71.35	9.03		
O=c1c2ccccc2nc(-c2ccccc2)n1NCCNc1ccccc1	12.32	10.11	402	11.55	71.64	11.32		
O=c1c2ccccc2nc(-c2ccccc2)n1NCCNc1ccc(Cl)cc1	10.73	6.48	416	9.42	72.12	8.28		
CN(C)CCC(c1ccc(Cl)cc1)c1ccccn1.O=C(O)/C=C\C(=O)O (stereo unspecified) [CHLORPHENIRAMINE MALEATE]	34.8	29.58		38.8		32.04	394	70.09
O=c1c2ccccc2nc(-c2ccccc2)n1NCCNCc1ccccc1	12.31	8.9	366	11.52	68.85	10.42		
O=c1c2ccccc2nc(-c2ccccc2)n1NCCNc1ccc([N+](=O)[O-])cc1	11.04	8.32	394	9.98	71.06	9.51		
COc1cccc(NCCNn2c(-c3ccccc3)nc3ccccc3c2=O)c1	11.63	9.32	382	10.89	70.15	10.35		
O=c1c2ccccc2nc(-c2ccccc2)n1NCCN1CCOCC1	10.41	7.32	428	9.32	73.36	8.43		
Cc1ccccc1NCCNn1c(-c2ccccc2)nc2ccccc2c1=O	10.38	7.13	375	9.88	69.6	9.42		
O=c1c2ccccc2nc(-c2ccccc2)n1NCCN1CCNCC1	10.79	8.21	433	10.42	73.67	9.35		
